Data taken from patent US9050346B2, “Bromodomain inhibitors” (AbbVie Inc., priority 2013, dated 2015).

How the values were obtained:
BRD4 (BDI_K57-E168) = target: T1, BRD4 (BDI_K57-E168) (Homo sapiens, UniProt O60885); assay: TR-FRET bromodomain binding assay, BRD4 first bromodomain; conditions: His-tagged BD1, 100 nM Alexa647 probe; Ki calculated from IC50; dilution protocol A-G
T1 construct: BD1: amino acids K57-E168; made in house
Method: (§1) A time-resolved fluorescence resonance energy transfer (TR-FRET) assay was used to determine the affinities of compounds of the Examples listed in Table 1 for each bromodomain of BRD4. His-tagged first (BD1: amino acids K57-E168) and second (BD2: amino acids E352-E168) bromodomains of BRD4 were expressed and purified. An Alexa647-labeled BET-inhibitor was used as the fluorescent probe in the assay.
(§2) Compound dilution series were prepared in DMSO via an approximately 3-fold serial dilution from one of the following: • Assay method A: 2.5 mM-800 nM • Assay method B: 2.5 mM-797 nM • Assay method C: 1250 μM-21 nM • Assay method D: 500 μM-8.5 nM • Assay method E: 0.47 mM to 7.8 nM • Assay method F: 250 μM-4.2 nM • Assay method G: 0.047 mM to 0.78 nM or 5-fold serial dilution from Assay Method A or Assay Method B.
(§3) For Assay methods A, C, D, and F: Compounds were then diluted 6:100 in assay buffer (20 mM Sodium Phosphate, pH 6.0, 50 mM NaCl, 1 mM Ethylenediaminetetraacetic acid, 0.01% Triton X-100, 1 mM DL-Dithiothreitol) to yield 3× working solutions. Six microliters (μL) of the working solution was then transferred to white, low-volume assay plates (Costar #3673). A 1.5× assay mixture containing His-tagged bromodomain, Europium-conjugated anti-His antibody (Invitrogen PV5596) and the Alexa-647-conjugated probe molecule was also prepared. Twelve μL of this solution were added to the assay plate to reach a final volume of 18 μL.
(§4) For Assay methods B, E, and G: Compound dilutions were added directly into white, low-volume assay plates (Perkin Elmer Proxiplate 384 Plus#6008280) using a Labcyte Echo in conjunction with Labcyte Access and Thermo Multidrop CombinL robotics. Compounds were then suspended in eight microliters (μL) of assay buffer (20 mM Sodium Phosphate, pH 6.0, 50 mM NaCl, 1 mM Ethylenediaminetetraacetic acid disodium salt dihydrate, 0.01% Triton X-100, 1 mM DL-Dithiothreitol) containing His-tagged bromodomain, Europium-conjugated anti-His antibody (Invitrogen PV5596) and Alexa-647-conjugated probe.
(§5) The final concentration of 1× assay mixture for assay methods A, B, C, D, E, F, and G contains 2% DMSO, 8 nM His-tagged bromodomain, 1 nM Europium-conjugated anti-His-tag antibody and 100 nM or 30 nM probe (for BDI or BDII, respectively) and compound concentration in the range of: 50 μM-16 nM for method A, 49.02 μM-15.63 nM for method B, 25 μM-423 pM for method C, 10 μM-169 pM for method D, 9.19 μM-150 pM for method E, 5 μM-85 pM for method F, and 0.92 μM-15 pM for method G.
(§6) After a one-hour equilibration at room temperature, TR-FRET ratios were determined using an Envision multilabel plate reader (Ex 340, Em 495/520).
(§7) TR-FRET data were normalized to the means of 24 no-compound controls (“high”) and 8 controls containing 1 μM un-labeled probe (“low”). Percent inhibition was plotted as a function of compound concentration and the data were fit with the 4 parameter logistic equation to obtain IC50s Inhibition constants (Ki) were calculated from the IC50s, probe Kd and probe concentration. Typical Z′ values were between 0.65 and 0.75. The minimum significant ratio was determined to evaluate assay reproducibility (Eastwood et al., (2006) J Biomol Screen, 11: 253-261). The MSR was determined to be 2.03 for BDI and 1.93 for BDII, and a moving MSR (last six run MSR overtime) for both BDI and BDII was typically <3.

BRD4 (BDII_E352-M457) = target: T2, BRD4 (BDII_E352-M457) (Homo sapiens, UniProt O60885); assay: TR-FRET bromodomain binding assay, BRD4 second bromodomain
T2 construct: made in house
Method: as §1, §2, §3, §4, §5, §6, §7

Ki (BRD4 (BDI_K57-E168)) [nM]	Ki (BRD4 (BDII_E352-M457)) [nM]	Structure (SMILES)
519	2520	CCCc1noc(-c2cc3c(-c4ccccc4Oc4ccccc4)[nH]c(C)c3c(=O)[nH]2)n1 [Example 47, 3-methyl-1-(2-phenoxyphenyl)-6-(3-propyl-1,2,4-oxadiazol-5-yl)-2H-pyrrolo[3,4-c]pyridin-4(5H)-one]
1250	1220	Cc1[nH]c(-c2ccccc2Oc2ccccc2)c2cc(-c3nc(-c4ccccc4)no3)[nH]c(=O)c12 [Example 46, 3-methyl-1-(2-phenoxyphenyl)-6-(3-phenyl-1,2,4-oxadiazol-5-yl)-2H-pyrrolo[3,4-c]pyridin-4(5H)-one]
14.1	47	Cc1[nH]c(-c2ccccc2Oc2ccccc2)c2c1C(=O)NCC2 [Example 92, 3-methyl-1-(2-phenoxyphenyl)-2,5,6,7-tetrahydro-4H-pyrrolo[3,4-c]pyridin-4-one]
> 13000	> 22200	Cc1ccc(S(=O)(=O)Nc2ccccc2-c2[nH]c(C)c3c(=O)[nH]ncc23)cc1 [Example 77, 4-methyl-N-[2-(7-methyl-1-oxo-2,6-dihydro-1H-pyrrolo[3,4-d]pyridazin-5-yl)phenyl]benzenesulfonamide]
1370	12300	Cc1[nH]c(-c2ccccc2Oc2ccccc2)c2nc(C(=O)O)[nH]c(=O)c12 [Example 86, 5-methyl-4-oxo-7-(2-phenoxyphenyl)-4,6-dihydro-3H-pyrrolo[3,4-d]pyrimidine-2-carboxylic acid]
358	1720	Cc1[nH]c(-c2cc(S(C)(=O)=O)ccc2Oc2ccc(F)cc2F)c2cc(C(=O)O)[nH]c(=O)c12 [Example 40, 1-[2-(2,4-difluorophenoxy)-5-(methylsulfonyl)phenyl]-3-methyl-4-oxo-4,5-dihydro-2H-pyrrolo[3,4-c]pyridine-6-carboxylic acid]
108	791	Cc1[nH]c(-c2cc(N)ccc2Oc2ccccc2)c2nc[nH]c(=O)c12 [Example 90, 7-(5-amino-2-phenoxyphenyl)-5-methyl-3,6-dihydro-4H-pyrrolo[3,4-d]pyrimidin-4-one]
31.4	67.6	Cc1[nH]c(-c2ccccc2Oc2ccccc2)c2cc[nH]c(=O)c12 [Example 14, 3-methyl-1-(2-phenoxyphenyl)-2H-pyrrolo[3,4-c]pyridin-4(5H)-one]
82.6	546	Cc1[nH]c(-c2ccccc2Oc2ccccc2)c2cc(C(=O)O)[nH]c(=O)c12 [Example 12, 3-methyl-4-oxo-1-(2-phenoxyphenyl)-4,5-dihydro-2H-pyrrolo[3,4-c]pyridine-6-carboxylic acid]
22.6	117	Cc1[nH]c(-c2cc(NS(C)(=O)=O)ccc2Oc2ccccc2)c2nc[nH]c(=O)c12 [Example 91, N-[3-(5-methyl-4-oxo-4,6-dihydro-3H-pyrrolo[3,4-d]pyrimidin-7-yl)-4-phenoxyphenyl]methanesulfonamide]
1560	3120	Cc1[nH]c(-c2cc(CN3CCN(C)CC3)ccc2Oc2ccc(F)cc2F)c2c1C(=O)NCC2 [Example 102, 1-{2-(2,4-difluorophenoxy)-5-[(4-methylpiperazin-1-yl)methyl]phenyl}-3-methyl-2,5,6,7-tetrahydro-4H-pyrrolo[3,4-c]pyridin-4-one]
14	138	Cc1[nH]c(-c2cc(NS(C)(=O)=O)ccc2Oc2ccc(F)cc2F)c2c1C(=O)NCC2 [Example 93, N-[4-(2,4-difluorophenoxy)-3-(3-methyl-4-oxo-4,5,6,7-tetrahydro-2H-pyrrolo[3,4-c]pyridin-1-yl)phenyl]methanesulfonamide]
2250	2920	Cc1[nH]c(-c2ccccc2)c2c1C(=O)NCC2 [Example 100, 3-methyl-1-phenyl-2,5,6,7-tetrahydro-4H-pyrrolo[3,4-c]pyridin-4-one]
92.2	2750	CCOC(=O)c1cc2c(-c3cc(Cl)ccc3Oc3ccc(F)cc3F)[nH]c(C)c2c(=O)[nH]1 [Example 24, ethyl 1-[5-chloro-2-(2,4-difluorophenoxy)phenyl]-3-methyl-4-oxo-4,5-dihydro-2H-pyrrolo[3,4-c]pyridine-6-carboxylate]
225	2790	Cc1[nH]c(-c2ccccc2Oc2ccc(F)cc2F)c2cc(C(=O)O)[nH]c(=O)c12 [Example 22, 1-[2-(2,4-difluorophenoxy)phenyl]-3-methyl-4-oxo-4,5-dihydro-2H-pyrrolo[3,4-c]pyridine-6-carboxylic acid]
1.49	8.5	Cc1[nH]c(-c2cc(NS(C)(=O)=O)ccc2Oc2ccccc2)c2cn[nH]c(=O)c12 [Example 73, N-[3-(7-methyl-1-oxo-2,6-dihydro-1H-pyrrolo[3,4-d]pyridazin-5-yl)-4-phenoxyphenyl]methanesulfonamide]
499	759	CCOC(=O)c1cc2c(-c3cc([N+](=O)[O-])ccc3Oc3ccc(F)cc3F)[nH]c(C)c2c(=O)[nH]1 [Example 33, ethyl 1-[2-(2,4-difluorophenoxy)-5-nitrophenyl]-3-methyl-4-oxo-4,5-dihydro-2H-pyrrolo[3,4-c]pyridine-6-carboxylate]
141	944	Cc1[nH]c(-c2ccccc2Oc2ccccc2)c2cc(C(=O)N(C)C)[nH]c(=O)c12 [Example 41, N,N,3-trimethyl-4-oxo-1-(2-phenoxyphenyl)-4,5-dihydro-2H-pyrrolo[3,4-c]pyridine-6-carboxamide]
> 2380	> 4080	Cc1[nH]c(-c2ccccc2Oc2ccccc2)c2cc(-c3nc(-c4ccc(N(C)C)cc4)no3)[nH]c(=O)c12 [Example 62, 6-(3-(4-(dimethylamino)phenyl)-1,2,4-oxadiazol-5-yl)-3-methyl-1-(2-phenoxyphenyl)-2H-pyrrolo[3,4-c]pyridin-4(5H)-one]
1620	> 4440	Cc1[nH]c(-c2cc(S(C)(=O)=O)ccc2F)c2c1C(=O)NCC2 [Example 99, 1-[2-fluoro-5-(methylsulfonyl)phenyl]-3-methyl-2,5,6,7-tetrahydro-4H-pyrrolo[3,4-c]pyridin-4-one]
7.63	25.8	Cc1[nH]c(-c2ccccc2Oc2ccccc2)c2cn[nH]c(=O)c12 [Example 72, 7-methyl-5-(2-phenoxyphenyl)-2,6-dihydro-1H-pyrrolo[3,4-d]pyridazin-1-one]
3.67	20.4	Cc1[nH]c(-c2cc(NS(C)(=O)=O)ccc2Oc2ccccc2)c2c1C(=O)NCC2 [Example 95, N-[3-(3-methyl-4-oxo-4,5,6,7-tetrahydro-2H-pyrrolo[3,4-c]pyridin-1-yl)-4-phenoxyphenyl]methanesulfonamide]
